Measurements taken from patent EP0329053A1, “Choline esters of glycerophosphoric acids” (MAGIS FARMACEUTICI S.p.A., priority 1988, dated 1989).

Assay: Acute toxicity by the Weill method
Conditions: in vivo, mouse, read-out: LD₅₀
Description: The acute toxicity of the compounds according to the invention was studied on the mouse by the Weill method (Weill C.S. Biomed. J. 8 249 (1952)). […] For the compound of formula (I) wherein n=1 and R, R¹ equal to H, the LD₅₀ is higher than 2000 mg/kg.

With `C[N+](C)(C)CCOP(=O)([O-])OP(=O)(O)OCC(O)CO` (stereo not drawn) [choline α-glyceryl disphosphate] as the molecule, how does the LD50 read?
The LD50 was greater than 2000 mg/kg.
